Measurements as given in the Kinase Knowledgebase extract (Sharma et al. 2016).

These compounds were tested against MAPK14 (human) (UniProt Q16539) (assay: Inhibition of MAPK14 Kinase Activity).
Chain of MAPK14 (human) (Q16539 whole entry, looked up): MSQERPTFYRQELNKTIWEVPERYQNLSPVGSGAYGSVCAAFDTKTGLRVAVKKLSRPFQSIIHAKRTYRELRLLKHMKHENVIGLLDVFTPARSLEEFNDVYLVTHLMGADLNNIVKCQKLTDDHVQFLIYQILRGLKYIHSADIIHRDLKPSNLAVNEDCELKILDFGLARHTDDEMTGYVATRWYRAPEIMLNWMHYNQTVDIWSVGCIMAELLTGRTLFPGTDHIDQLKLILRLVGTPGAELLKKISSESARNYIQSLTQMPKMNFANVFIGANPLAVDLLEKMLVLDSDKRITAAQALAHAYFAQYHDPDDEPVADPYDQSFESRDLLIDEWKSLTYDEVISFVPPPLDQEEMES

| SMILES | IC50 [nM] |
| --- | --- |
| CC(C)NC(=O)c1csc(-c2oc(CN3CCN(C(=O)Cc4ccc(O)c(F)c4)CC3)nc2-c2ccc(F)cc2)n1 | ≤ 1000 |
| Cc1[nH]nc(-c2ccc(F)cc2)c1-c1nc(C(=O)NCc2ccc3c(c2)OCO3)cs1 | ≤ 1000 |
| CC(C)CC(NC(=O)OC(C)(C)C)C(=O)N1CCC(c2[nH]nc(-c3ccc(F)cc3)c2-c2nc(C(=O)NC(C)C)cs2)CC1 (stereo unspecified) | ≤ 1000 |
| Cc1nc(-c2ccc(F)cc2)c(-c2nc(C(=O)Nc3ccc(C(F)(F)F)cc3C(F)(F)F)cs2)s1 | ≤ 1000 |
| COc1cccc(O)c1C(=O)N1CCN(Cc2nc(-c3ccc(F)cc3)c(-c3nc(C(=O)NC(C)C)cs3)o2)CC1 | ≤ 1000 |
| Cc1nc(-c2ccc(F)cc2)c(-c2nc(C(=O)NC3CCCCC3)cs2)s1 | ≤ 1000 |
| Cc1nc(-c2ccc(F)cc2)c(-c2nc(C(=O)NC3CCC3)cs2)s1 | ≤ 1000 |
| CC(C)NC(=O)c1csc(-c2[nH][nH]c(=O)c2-c2ccc(F)cc2)n1 | ≤ 1000 |
| Cc1[nH]nc(-c2ccc(F)cc2)c1-c1nc(C(=O)NCc2cccnc2)cs1 | ≤ 1000 |
| CC(C)NC(=O)c1csc(-c2oc(CN3CCN(C(=O)c4ccncc4)CC3)nc2-c2ccc(F)cc2)n1 | ≤ 1000 |
| Cc1cccc(CNC(=O)c2csc(-c3sc(C)nc3-c3ccc(F)cc3)n2)c1 | ≤ 1000 |
| CC(C)NC(=O)c1csc(-c2oc(CN3CCN(C(=O)c4cscn4)CC3)nc2-c2ccc(F)cc2)n1 | ≤ 1000 |
| CC(C)NC(=O)c1csc(-c2oc(CNC(C)CO)nc2-c2ccc(F)cc2)n1 (stereo unspecified) | ≤ 1000 |
| CC(C)NC(=O)c1csc(-c2c(-c3ccc(F)cc3)n[nH]c2C2CCN(C(=O)c3ccccc3C=O)CC2)n1 | ≤ 1000 |
| Cc1onc(-c2ccc(F)c(Cl)c2)c1-c1ccn(C(=O)NC(C)C)n1 | ≤ 1000 |
| CC(C)NC(=O)c1csc(-c2c(-c3ccc(F)cc3)n[nH]c2C2CCN(C(=O)c3ccc(C(C)(C)C)cc3)CC2)n1 | ≤ 1000 |
| CC(C)NC(=O)c1csc(-c2c(-c3ccc(F)cc3)n[nH]c2C2CCN(C(=O)C3CCCO3)CC2)n1 (stereo unspecified) | ≤ 1000 |
| CC(C)NC(=O)c1csc(-c2oc(CNC(=O)c3cc([N+](=O)[O-])ccc3Cl)nc2-c2ccc(F)cc2)n1 | ≤ 1000 |
| CCNC(=O)c1csc(-c2c(-c3ccc(F)cc3)n[nH]c2C2CCNCC2)n1 | ≤ 1000 |
| Cc1cccc(C(=O)N2CCN(Cc3nc(-c4ccc(F)cc4)c(-c4nc(C(=O)NC(C)C)cs4)o3)CC2)c1O | ≤ 1000 |
| CCNC(=O)c1csc(-c2sc(C)nc2-c2ccc(F)cc2)n1 | ≤ 1000 |
| CC(C)NC(=O)c1csc(-c2oc(CNC(=O)c3cnc[nH]3)nc2-c2ccc(F)cc2)n1 | ≤ 1000 |

The next lines start with the values.

| IC50 [nM] | SMILES |
| --- | --- |
| ≤ 1000 | CC(C)NC(=O)c1csc(-c2c(-c3ccc(F)cc3)n[nH]c2C2CCN(C(=O)c3ccc(C=O)cc3)CC2)n1 |
| ≤ 1000 | Cc1nc(-c2ccc(F)cc2)c(-c2nc(C(=O)NCCc3ccc(O)cc3)cs2)s1 |
| ≤ 1000 | Cc1nc(-c2ccc(F)cc2)c(-c2nc(C(=O)Nc3cccc(Cl)c3C)cs2)s1 |
| ≤ 1000 | CCC(C)NC(=O)n1ccc(-c2c(-c3ccc(Cl)cc3)noc2C)n1 (stereo unspecified) |
| ≤ 1000 | CC(C)NC(=O)c1csc(-c2oc(CN3CCN(C(=O)CC#N)CC3)nc2-c2ccc(F)cc2)n1 |
| ≤ 1000 | CC(C)NC(=O)c1csc(-c2oc(CNC(=O)CC#N)nc2-c2ccc(F)cc2)n1 |
| ≤ 1000 | CC(C)NC(=O)c1csc(-c2oc(CN3CCN(C(=O)c4ccccc4-c4ccccc4)CC3)nc2-c2ccc(F)cc2)n1 |
| ≤ 1000 | CC(C)NC(=O)c1csc(-c2c(-c3ccc(F)cc3)n[nH]c2C2CCN(C(=O)Cc3ccccc3O)CC2)n1 |
| ≤ 1000 | COc1ccccc1CC(=O)NCc1nc(-c2ccc(F)cc2)c(-c2nc(C(=O)NC(C)C)cs2)o1 |
| ≤ 1000 | CC(C)NC(=O)c1csc(-c2oc(CBr)nc2-c2ccc(F)cc2)n1 |
| ≤ 1000 | CC(=O)N1CCC(c2onc(-c3ccc(F)cc3)c2-c2nc(C(=O)NC(C)C)cs2)CC1 |
| ≤ 1000 | CC(C)NC(=O)c1csc(-c2c(-c3ccc(F)cc3)noc2CNC(=O)c2cccc3ccccc23)n1 |
| ≤ 1000 | Cc1nc(-c2ccc(F)cc2)c(-c2nc(C(=O)NCCOc3ccccc3)cs2)s1 |
| ≤ 1000 | Cc1[nH]nc(-c2ccc(F)cc2)c1-c1nc(C(=O)NCC2CC2)cs1 |
